Values of other authors in patent US20210379059A1, “COMBINATION OF SUBSTANCES FOR REGENERATIVE THERAPY IN PATIENTS WITH TYPE 1 DIABETES MELLITUS” (Levicure Ltd., priority 2018, published 2021).
Read-outs that look alike come from different tables or passages of the source.

Tests used:
[1] = tested on: adult patients with type 1 diabetes; settings: 8 weeks, despite a reduction of total and lunch dose of insulin
β-cells [2] = settings: mouse cell cultures
β-cells [3] = settings: human cell cultures

N[C@@H](CC(=O)N1CCn2c(nnc2C(F)(F)F)C1)Cc1cc(F)c(F)cc1F [Sitagliptin]
blood glucose levels [1]: significantly reduced

NCCCC(=O)O [GABA, gamma-aminobutyric acid]
regeneration of β-cells (β-cells [2]): provide the regeneration of β-cells | regeneration of β-cells (β-cells [3]): provide the regeneration of β-cells
